Results from paper PMC10411625, “Rationally designed stapled peptides allosterically inhibit PTBP1–RNA-binding” (Chemical Science, 2023).

Assay: Peptide stability in HEK293T cell lysate
Type: in vitro ADME
Conditions: human, HEK293T lysate 1 mg/ml in PBS, 1 mM peptide, 37 °C, HPLC/LCMS peak area normalized to ethylparaben standard, read-out: peptide still intact after 24 hours in cell lysate
Text: Stapled peptides have been reported to be able to pass cell membranes with high efficiency, but their cell permeability is dependent on the peptide sequence and the position of the staple.[41] To evaluate whether the α3-helix derived peptide is cell permeable, we used azidolysine derivatized variants of P-6 and P-6S (P-6-Az and P-6S-Az) and used them in the NanoClick assay.[60] In this assay cells are transfected to express a NanoLuc–HaloTag fusion protein followed by treatment with a dibenzoazacyclooctyne reagent modified with a chloroalkane (DIBAC–CA) that covalently modifies the HaloTag protein. When an azide modified NanoBRET acceptor (NB618-Az) is added, it will undergo strain promoted azide–alkyne cycloaddition (SPAAC) with the DIBAC–CA placing the acceptor in the proximity of the NanoLuc protein leading to an observable BRET signal. […] The SPAAC reaction only happens if the peptide is able to reach the cytosol and the assay therefore provides a read-out of cell-permeability. […]
Peptide stability was measured in HEK293T lysates. […]
The samples were chilled on ice for 15 min and insoluble material was removed by centrifugation (16873 x g, 4 °C, 10 min). The supernatant was analysed by LCMS with a gradient of H2O (0.1% TFA) and ACN (0.1% TFA) from 5 to 95 % over 20 min. […]

SMILES | remaining at 24 h, 1 mM [%]
CC(=O)N[C@@H](CC(N)=O)C(=O)N[C@@H](CCC(N)=O)C(=O)N[C@@]1(C)CCCCCCCC[C@@](C)(C(=O)N[C@@H](C)C(=O)N[C@@H](CC(C)C)C(=O)N[C@@H](CCC(N)=O)C(=O)N[C@@H](C)C(=O)N[C@H](C(=O)N[C@@H](CC(N)=O)C(N)=O)C(C)C)NC(=O)[C@H](CCC(N)=O)NC(=O)[C@H](C)NC(=O)[C@H](CCCNC(=N)N)NC1=O [Peptide P-2] | 12
CC(=O)N[C@@H](CC(N)=O)C(=O)N[C@@H](CCC(N)=O)C(=O)N[C@@]1(C)CCCC=CCCCC2(CCCC=CCCC[C@](C)(C(=O)N[C@H](C(=O)N[C@@H](CC(N)=O)C(N)=O)C(C)C)NC(=O)[C@H](CCC(N)=O)NC(=O)[C@H](CC(C)C)NC(=O)[C@H](C)NC2=O)NC(=O)[C@H](CCC(N)=O)NC(=O)[C@H](C)NC(=O)[C@H](CCCNC(=N)N)NC1=O (some centres unmarked) [Peptide P-6] | 43
